The values that follow are results of earlier work, collected in US20070027075A1, “Compositions and methods for targeted drug delivery” (priority 2003, published 2007).

The target of the series is prostate-specific antigen (Homo sapiens, UniProt P07288). The conditions noted are these: PSA.
Sequence of prostate-specific antigen (P07288 25-261): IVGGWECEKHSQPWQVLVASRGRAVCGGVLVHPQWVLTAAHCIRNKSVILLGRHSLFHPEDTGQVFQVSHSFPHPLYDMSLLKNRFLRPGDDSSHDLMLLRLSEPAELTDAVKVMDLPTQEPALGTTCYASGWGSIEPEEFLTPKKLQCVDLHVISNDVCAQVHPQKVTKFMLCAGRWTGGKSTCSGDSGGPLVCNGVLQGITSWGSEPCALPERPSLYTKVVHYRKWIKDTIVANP

Consider CVFTSDYAFC, for which the Kd (usually the constant that tells how readily two partners part at equilibrium) is 8 µM.
